We go through 3 molecules from BindingDB's records for doi:10.1016/s0960-894x(02)00236-6 (University of Virginia, 2002).

Experiment [1] in a line: AE maximal score at Adenosine A1 receptor.
The nature of experiment [2]: AE maximal score at Adenosine A3 receptor.
Experiment [3] can be described thus: AE maximal score at Adenosine A2A receptor.

On to `CC(=O)Oc1ccc2c(c1)CCc1sc(N)nc1-2`, for which a half-maximal effect in experiment [1] (EC50) was put at 158 µM.

In the case of `COc1cc2c(cc1OC)-c1nc(N)sc1C2`, the results for the EC50 in experiment [2] and in experiment [3] were 794 µM and 1 pM, respectively.

Regarding `COc1ccc2c(c1)CCc1sc(N)nc1-2`, in experiment [1], the EC50 is 0.002 µM. This lies in the single-digit nanomolar range.
